Here are results for three compounds from publication PMC4312198 (Biomaterials, 2014).

Each structure is given as a SMILES string.

The test system of series [1] is SKOV-3 ovarian cancer cells. The series can be described thus: MTS cytotoxicity and combination index, SKOV-3. Type of series: cell-based, human.
The test system of series [2] is ES-2 ovarian cancer cells. Put plainly: MTS cytotoxicity and combination index, ES-2. Type of series: cell-based.
Series [3] has as its system Hela cells. Put plainly: MTS cytotoxicity and combination index, Hela. Type of series: cell-based. The following applies: 72 h.
The test system of series [4] is SKOV3 ovarian cancer tumor. Put plainly: Tissue biodistribution of Pt. The conditions noted are these: 48 h post-injection, CDDP 6 mg/kg i.v. Type of series: in vivo, mouse.
Series [5] concerns mouse models. The following applies: mouse models ref 37, 38; cited from earlier work.
Series [6] concerns SKOV-3 ovarian cancer xenografts. The series can be described thus: In vivo anticancer efficacy.
Series [7] in a line: Plasma pharmacokinetics of platinum.
Series [8] concerns SKOV-3 tumor xenograft. The series can be described thus: NIRF optical animal imaging. Details: species or system mouse. The conditions noted are these: in vivo NIRF after tail vein injection.
[9] abbreviates: Pt in plasma, two compartment model, i.v.

With `[NH2][Pt]([NH2])([Cl])[Cl]` [CDDP, Cisplatin], the “IC50, as CDDP concentration” value came to 1354 ng/mL in series [1] (SKOV-3, 72 h, first figure of x/y cells); 920 ng/mL in series [2] (ES2, 72 h, first figure of x/y cells); 2427 ng/mL in series [3] (Hela, first figure of x/y cells). Moreover, the “Kidney/tumor ratio of Pt concentrations” value in series [4] is given as 4. In addition, the “Liver/tumor ratio of Pt concentrations” value in series [4] was found to be 2. In addition, in series [5], the “Maximum tolerated dose (MTD)” value was at most 4 mg/kg. Further, the Medium survival time in series [6] (4 mg/kg CDDP) is 15 days. In series [6] (4 mg/kg CDDP i.v. day 0, 4, 8, on day 12), the Body weight loss entry was “exceeded 20%”. Moreover, in series [6] (4 mg/kg CDDP, day 7 after last injection), the “WBC counting vs PBS control” value is on record as “significantly decreased”. Also, in series [6] (4 mg/kg CDDP, died on day 12, 13, 15, 16 and 17), the “Animal death due to severe side effects” value is on record as “all animals”. The “Pt of injected dose remaining in plasma” value in series [7] (30 min after i.v. injection) is reported as 5%; in series [7] (24 h after i.v. injection) it was “less than 1%”. Also, in series [7] (setting [9]), the CL2 was determined as 559.30 mL/kg/h. In series [7] (setting [9]), the t1/2α is 2.64 min. Moreover, the “Clearance rate (Cl) relative to nanotherapeutics, both phases” value in series [7] (mouse, in vivo) is listed as 20–25 fold.

For the compound `CC(=O)O[C@H]1C(=O)[C@@]2(C)[C@H]([C@H](OC(=O)c3ccccc3)[C@]3(O)C[C@H](OC(=O)[C@H](O)[C@@H](NC(=O)c4ccccc4)c4ccccc4)C(C)=C1C3(C)C)[C@]1(OC(C)=O)CO[C@@H]1C[C@@H]2O` [PTX, paclitaxel], the IC50 in series [1] (Homo sapiens, SK-OV-3, 72 h, read-out: IC50, as PTX concentration) stood at 0.032 µg/mL; in series [2] (72 h, read-out: IC50, as PTX concentration), 0.055 µg/mL; in series [3] (Homo sapiens, HeLa, read-out: IC50, as PTX concentration), 0.02 µg/mL.

For `CCCCCCCCCCCCCCCCCCN1/C(=C/C=C/C=C/C2=[N+](CCCCCCCCCCCCCCCCCC)c3ccccc3C2(C)C)C(C)(C)c2ccccc21.[O-][Cl+3]([O-])([O-])[O-]` [free DiD], the “Tumor fluorescence in vivo” value in series [8] is “very weak tumor fluorescence”.
